Results from ChEMBL document CHEMBL1201862, “PubChem BioAssay data set” (2004).
Counter-ions that a name gives are not always drawn. Active and inactive are the calls of the source. Rule as the data show it, for most assays here: actives have a measured EC50 and inactives only a lower limit.

How the values were obtained:
[1] = Luminescence Cell-Based Dose Confirmation HTS to Identify Inhibitors of Platelet Dense Granule Release. [Related pubchem assays: 1663 (Primary HTS), 1678 (Summary of Project)]; format: functional
[2] = target: Luciferin 4-monooxygenase (Photinus pyralis, UniProt P08659); assay: firefly luciferase enzyme inhibitors, dose response, biochemical, luminescence (AID 1891)
[3] = NIH-3T3 fibroblast cytotoxicity, dose response, cytotoxicity control, cell-based, fluorescence, Alamar Blue, secondary assay (AID 2327); format: functional;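 also: NIH-3T3 mouse fibroblasts cultured with fluconazole at 8 µg/mL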
[4] = C. albicans growth with fluconazole, confirmation, fluorescence, retest (AID 2467); format: functional, cell-based
[5] = target: T1, Protein RecA (Mycobacterium tuberculosis, UniProt P9WHJ3); assay: Fluorescence Cell-Free Homogeneous Dose Retest to Identify Inhibitors of RecA-Intein Splicing Activity. [Related pubchem assays (depositor defined):AID2097, AID2223, AID489010, AID492950]; format: functional
T1 sequence (P9WHJ3 whole entry): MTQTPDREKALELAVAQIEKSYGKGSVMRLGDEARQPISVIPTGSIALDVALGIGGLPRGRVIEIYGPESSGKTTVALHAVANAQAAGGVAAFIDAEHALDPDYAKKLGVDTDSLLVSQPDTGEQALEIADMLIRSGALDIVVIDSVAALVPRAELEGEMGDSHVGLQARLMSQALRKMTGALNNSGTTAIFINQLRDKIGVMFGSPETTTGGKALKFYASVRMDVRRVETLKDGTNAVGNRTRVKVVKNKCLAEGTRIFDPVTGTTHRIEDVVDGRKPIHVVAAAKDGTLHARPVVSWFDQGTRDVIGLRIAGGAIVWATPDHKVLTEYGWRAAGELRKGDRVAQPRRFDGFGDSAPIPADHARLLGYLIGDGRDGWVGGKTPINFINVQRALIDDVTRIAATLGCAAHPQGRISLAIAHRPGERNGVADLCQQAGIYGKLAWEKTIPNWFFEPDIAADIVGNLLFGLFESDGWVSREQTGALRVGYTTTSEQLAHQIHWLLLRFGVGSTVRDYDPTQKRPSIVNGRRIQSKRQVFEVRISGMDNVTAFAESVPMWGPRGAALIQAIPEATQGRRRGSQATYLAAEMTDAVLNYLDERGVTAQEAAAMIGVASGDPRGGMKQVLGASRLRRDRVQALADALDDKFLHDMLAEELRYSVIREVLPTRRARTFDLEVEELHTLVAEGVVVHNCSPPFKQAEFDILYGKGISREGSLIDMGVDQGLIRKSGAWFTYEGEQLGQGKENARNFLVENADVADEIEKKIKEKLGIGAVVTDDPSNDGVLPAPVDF

[6] = target: T2, Replicative DNA helicase DnaB (Mycobacterium tuberculosis, UniProt P9WMR3); assay: DnaB intein splicing inhibitors, dose response, biochemical, cell-free fluorescence (AID 449749); format: functional
T2 sequence (P9WMR3 whole entry): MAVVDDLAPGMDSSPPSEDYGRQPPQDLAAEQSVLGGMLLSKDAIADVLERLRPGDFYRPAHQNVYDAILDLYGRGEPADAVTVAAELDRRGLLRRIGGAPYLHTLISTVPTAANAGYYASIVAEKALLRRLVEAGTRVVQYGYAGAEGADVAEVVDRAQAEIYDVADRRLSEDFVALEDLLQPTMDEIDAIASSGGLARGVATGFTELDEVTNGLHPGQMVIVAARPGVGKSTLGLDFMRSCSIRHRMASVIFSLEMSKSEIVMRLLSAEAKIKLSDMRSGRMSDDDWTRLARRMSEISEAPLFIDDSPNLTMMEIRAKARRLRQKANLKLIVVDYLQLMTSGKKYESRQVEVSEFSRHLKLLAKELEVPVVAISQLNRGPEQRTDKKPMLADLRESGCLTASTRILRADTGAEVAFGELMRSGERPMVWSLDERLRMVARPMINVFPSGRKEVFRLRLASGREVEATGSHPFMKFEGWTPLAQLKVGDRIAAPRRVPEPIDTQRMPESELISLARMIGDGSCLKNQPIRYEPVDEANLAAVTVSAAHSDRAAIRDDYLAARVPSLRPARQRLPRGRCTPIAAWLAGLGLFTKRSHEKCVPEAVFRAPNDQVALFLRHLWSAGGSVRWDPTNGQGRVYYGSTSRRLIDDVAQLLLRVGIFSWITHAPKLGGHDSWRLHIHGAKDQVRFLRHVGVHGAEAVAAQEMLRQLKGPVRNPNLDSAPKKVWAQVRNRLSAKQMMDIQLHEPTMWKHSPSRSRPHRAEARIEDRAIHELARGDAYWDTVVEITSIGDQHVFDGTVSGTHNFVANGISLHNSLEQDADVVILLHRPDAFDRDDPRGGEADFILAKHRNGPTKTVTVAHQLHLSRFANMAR

[7] = test system: Streptococcus sp. 'group A'; assay: growth inhibition of control SK(-) GAS strain, dose response, counter-screen for streptokinase expression inhibitor project, luminescence, kanamycin, BacTiterGlo, confirmation (AID 1900); format: functional, organism-based
[8] = target: T3, Streptokinase A (Streptococcus pyogenes serotype M1, UniProt P10520); assay: S. pyogenes streptokinase expression inhibitors, potency, dose response, plasminogen activation absorbance, OD405 (AID 1914); format: functional, Streptococcus pyogenes M1 GAS;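 also: secreted streptokinase activity via plasminogen activation per viability signal from cell pellet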
T3 sequence (P10520 whole entry): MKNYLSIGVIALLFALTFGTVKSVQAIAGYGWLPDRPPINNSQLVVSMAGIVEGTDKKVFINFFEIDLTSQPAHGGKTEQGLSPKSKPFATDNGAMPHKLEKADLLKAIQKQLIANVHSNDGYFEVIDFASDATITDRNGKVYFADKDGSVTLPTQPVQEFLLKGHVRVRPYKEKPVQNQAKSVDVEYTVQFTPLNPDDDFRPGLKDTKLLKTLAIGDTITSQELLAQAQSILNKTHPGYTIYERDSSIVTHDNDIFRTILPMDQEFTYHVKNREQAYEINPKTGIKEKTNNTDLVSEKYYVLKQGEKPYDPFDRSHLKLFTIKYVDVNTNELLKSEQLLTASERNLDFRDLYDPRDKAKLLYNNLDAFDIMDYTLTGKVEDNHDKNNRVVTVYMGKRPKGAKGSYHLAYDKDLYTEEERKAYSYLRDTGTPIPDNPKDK

[9] = test system: Streptococcus; assay: Group A Streptococcus viability loss, dose response, counter-screen for streptokinase expression inhibitor project, luminescence, BacTiterGlo (AID 1915); format: functional, organism-based;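 also: potency for reduction of bacterial viability or growth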
[10] = target: T4, Zinc finger protein mex-5 (Caenorhabditis elegans, UniProt Q9XUB2); assay: MEX-5/TCR-2 RNA interaction inhibitors, dose response, biochemical, C. elegans, fluorescence polarization (AID 1960)
T4 sequence (Q9XUB2 whole entry): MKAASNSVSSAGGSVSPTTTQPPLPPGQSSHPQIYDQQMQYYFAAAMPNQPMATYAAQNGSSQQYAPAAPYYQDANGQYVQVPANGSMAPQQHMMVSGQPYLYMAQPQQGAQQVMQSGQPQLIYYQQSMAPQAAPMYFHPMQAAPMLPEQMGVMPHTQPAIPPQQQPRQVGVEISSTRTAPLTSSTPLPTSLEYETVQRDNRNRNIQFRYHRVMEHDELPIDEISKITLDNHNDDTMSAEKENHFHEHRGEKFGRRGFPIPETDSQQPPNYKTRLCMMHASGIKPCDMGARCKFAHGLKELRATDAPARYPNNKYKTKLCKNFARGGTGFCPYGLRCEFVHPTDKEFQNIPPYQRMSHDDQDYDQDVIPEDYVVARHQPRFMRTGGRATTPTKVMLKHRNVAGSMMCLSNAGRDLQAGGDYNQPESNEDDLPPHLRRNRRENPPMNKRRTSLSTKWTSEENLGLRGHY

[11] = target: T5, Corticotropin-releasing factor receptor 2/Corticotropin-releasing factor-binding protein (Homo sapiens, UniProt P24387+Q13324); assay: activators of CRF receptor 2 with binding protein – uHTS hits, confirmation (AID 602473); format: functional; conditions: read-out: EC50_Mean
T5 sequence (Q13324 whole entry): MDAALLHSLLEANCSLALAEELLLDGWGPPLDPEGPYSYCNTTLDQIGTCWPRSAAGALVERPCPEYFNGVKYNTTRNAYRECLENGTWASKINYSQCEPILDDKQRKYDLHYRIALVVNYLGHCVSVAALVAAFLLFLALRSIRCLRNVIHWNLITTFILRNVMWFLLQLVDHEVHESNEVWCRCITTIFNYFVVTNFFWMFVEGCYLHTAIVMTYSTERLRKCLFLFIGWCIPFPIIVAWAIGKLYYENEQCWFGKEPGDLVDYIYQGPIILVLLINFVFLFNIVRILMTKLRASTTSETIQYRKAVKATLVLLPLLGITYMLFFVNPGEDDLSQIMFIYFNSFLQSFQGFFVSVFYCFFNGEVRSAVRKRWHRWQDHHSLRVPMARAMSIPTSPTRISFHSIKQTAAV
T5 sequence (P24387 whole entry): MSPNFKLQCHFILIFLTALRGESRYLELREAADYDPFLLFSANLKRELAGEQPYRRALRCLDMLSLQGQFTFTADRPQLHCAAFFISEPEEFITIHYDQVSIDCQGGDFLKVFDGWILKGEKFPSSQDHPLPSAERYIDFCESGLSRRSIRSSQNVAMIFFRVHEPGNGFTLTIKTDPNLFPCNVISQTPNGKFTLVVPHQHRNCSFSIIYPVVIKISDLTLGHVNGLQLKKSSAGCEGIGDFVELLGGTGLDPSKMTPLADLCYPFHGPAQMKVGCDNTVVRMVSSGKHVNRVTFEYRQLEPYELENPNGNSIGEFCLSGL

[12] = target: T6, RNA-binding protein pos-1 (Caenorhabditis elegans, UniProt G5EF15); assay: inhibitors of POS-1/mex-3 RNA binding, dose response, biochemical, fluorescence polarization (AID 1964);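 also: purified POS-1 fused to maltose binding protein made in E. coli; potency of compounds blocking POS-1 binding to fluorescent RNA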
T6 sequence (G5EF15 whole entry): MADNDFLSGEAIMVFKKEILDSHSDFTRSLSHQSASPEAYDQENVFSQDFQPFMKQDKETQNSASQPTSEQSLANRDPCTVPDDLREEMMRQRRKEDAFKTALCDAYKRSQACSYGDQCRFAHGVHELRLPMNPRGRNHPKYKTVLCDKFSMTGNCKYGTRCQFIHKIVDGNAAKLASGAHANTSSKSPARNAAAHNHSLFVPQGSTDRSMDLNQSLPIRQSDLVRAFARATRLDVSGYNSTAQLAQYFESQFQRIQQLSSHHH

[13] = inhibitors of SNCA 5'UTR-driven reporter translation, confirmation, H4 neuroglioma cells, luminescence (AID 1988); format: functional, cell-based
[14] = inhibitors of firefly luciferase expression or activity, dose response, H4 neuroglioma cells, luminescence (AID 1990); format: functional, cell-based
[15] = target: Cytochrome P450 2D6 (Homo sapiens, UniProt P10635);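 also: CYP2D6 member of a cytochrome P450 panel assay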
Sequence of Cytochrome P450 2D6 (P10635 whole entry): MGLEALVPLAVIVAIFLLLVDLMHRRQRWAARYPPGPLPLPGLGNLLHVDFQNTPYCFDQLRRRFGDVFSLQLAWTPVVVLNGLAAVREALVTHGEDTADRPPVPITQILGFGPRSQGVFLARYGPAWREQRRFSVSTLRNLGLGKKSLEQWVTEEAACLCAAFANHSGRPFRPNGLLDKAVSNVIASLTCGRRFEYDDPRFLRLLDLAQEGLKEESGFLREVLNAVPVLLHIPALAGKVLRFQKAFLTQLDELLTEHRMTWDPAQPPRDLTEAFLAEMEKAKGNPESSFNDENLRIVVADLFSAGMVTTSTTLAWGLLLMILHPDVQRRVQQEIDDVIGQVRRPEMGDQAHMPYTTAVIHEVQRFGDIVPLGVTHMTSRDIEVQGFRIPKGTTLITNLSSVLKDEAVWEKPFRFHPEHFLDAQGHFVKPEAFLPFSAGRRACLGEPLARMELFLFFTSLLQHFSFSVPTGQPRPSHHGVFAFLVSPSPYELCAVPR

Sequence of Luciferin 4-monooxygenase (P08659 whole entry): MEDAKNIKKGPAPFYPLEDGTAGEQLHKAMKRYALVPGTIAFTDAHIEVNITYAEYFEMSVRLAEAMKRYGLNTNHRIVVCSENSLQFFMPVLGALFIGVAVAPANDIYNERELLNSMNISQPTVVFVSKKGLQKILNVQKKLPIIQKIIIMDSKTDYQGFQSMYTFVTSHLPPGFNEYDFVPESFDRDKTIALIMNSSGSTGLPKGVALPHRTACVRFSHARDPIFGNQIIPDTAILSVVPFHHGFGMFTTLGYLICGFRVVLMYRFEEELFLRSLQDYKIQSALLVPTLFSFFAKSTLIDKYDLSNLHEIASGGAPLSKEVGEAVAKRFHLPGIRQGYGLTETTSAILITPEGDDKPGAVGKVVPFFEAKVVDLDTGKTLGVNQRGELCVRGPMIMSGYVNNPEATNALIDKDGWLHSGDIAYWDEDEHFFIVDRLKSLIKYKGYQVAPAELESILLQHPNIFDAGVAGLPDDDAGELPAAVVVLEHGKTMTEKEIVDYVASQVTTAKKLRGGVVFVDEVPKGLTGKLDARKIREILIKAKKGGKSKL

SMILES: O=C(Nc1nnc(-c2cccnc2)s1)c1cccs1
- EC50 [1]: > 112 µM (not active)
- EC50 [2]: 22.6 µM (active)

SMILES: Cc1ccc(C(=O)Nc2ccc(C)c(S(=O)(=O)N3CCOCC3)c2)c(C)c1
- EC50 [1]: > 112 µM (not active)
- EC50 [2]: > 112 µM (not active)

SMILES: CC(C)(C)c1ccc(C(=O)NNc2ccc(F)cc2F)cc1
- EC50 [3]: 32.2 µM (active)
- EC50 [4]: > 38 µM (not active)

SMILES: O=C(Oc1ccc(-c2nnco2)cc1)c1ccco1
- EC50 [5]: 15.3 µM (active)
- AC50 [6]: 17.6 µM (active)

SMILES: COc1ccc(-c2nc(CSCC(=O)N3CCN(c4cccc(C)c4)C(C)C3)c(C)o2)cc1OC (stereo not drawn)
- EC50 [1]: > 112 µM (not active)
- EC50 [2]: > 112 µM (not active)

SMILES: COc1ccc(C(C)NC(=O)c2ccccc2Cl)cc1OC (stereo not drawn)
- EC50 [1]: > 112 µM (not active)
- EC50 [2]: > 112 µM (not active)

SMILES: Brc1ccc(-c2nc(N/N=C/c3cccnc3)c3ccccc3n2)cc1
- EC50 [1]: 0.407 µM (active)
- EC50 [2]: 0.248 µM (active)

SMILES: C/C(=N/OC(=O)c1ccc(C)cc1)c1cccs1
- EC50 [1]: 5.14 µM (active)
- EC50 [2]: 1.22 µM (active)

SMILES: N#CC(c1ccc(Cl)cc1)N1CCOCC1 (stereo not drawn)
- EC50 [1]: > 112 µM (not active)
- EC50 [2]: > 112 µM (not active)

SMILES: CC(=O)NNC(=S)NC(=O)C(c1ccccc1)c1ccccc1
- EC50 [3]: > 150 µM (inactive)
- EC50 [7]: 3.24 µM (active)
- EC50 [4]: 1.52 µM (active)
- EC50 [8]: > 150 µM (not active)
- EC50 [9]: 10.4 µM (active)

SMILES: COc1ccnc(Oc2cccc(C(F)(F)F)c2)c1C(=O)N=CNOCc1ccccc1F
- EC50 [3]: > 150 µM (inactive)
- EC50 [4]: > 38 µM (not active)

SMILES: COc1ccc(/N=C/c2c(O)c3ccccc3n2C(C)=O)cc1
- EC50 [10]: > 300 µM (inconclusive)
- EC50 [11]: 6.35 µM (active)
- EC50 [12]: > 300 µM (inconclusive)

SMILES: COc1ccc(CNCCNC(=O)c2ccco2)c(OC)c1OC
- EC50 [3]: > 160 µM (inactive)
- EC50 [4]: > 38 µM (not active)

SMILES: Cc1ccc(C(=O)NC(=S)NNC(=O)c2cccc([N+](=O)[O-])c2)cc1
- EC50 [7]: 1.53 µM (active)
- EC50 [11]: 2.89 µM (active)
- EC50 [8]: > 150 µM (not active)
- EC50 [9]: 21.7 µM (active)

SMILES: CCOC(=O)Cc1csc(NC(=O)CSc2nnc(-c3ccc(NS(=O)(=O)CC)cc3)o2)n1
- EC50 [3]: > 150 µM (inactive)
- EC50 [4]: > 38 µM (not active)

SMILES: O=C(COC(=O)c1[nH]nc2ccccc12)Nc1cccc(S(=O)(=O)N2CCOCC2)c1
- EC50 [1]: > 112 µM (not active)

SMILES: Cc1ccc(C)c(NC(S)=NNC(=O)c2csc3c2CCC(C)C3)c1 (stereo not drawn)
- EC50 [3]: > 150 µM (inactive)
- EC50 [4]: 3.32 µM (active)

SMILES: O=C(c1ccc(S(=O)(=O)Nc2ccccc2)cc1)N1CCCCCCC1
- EC50 [1]: > 112 µM (not active)
- EC50 [2]: > 112 µM (not active)

SMILES: Nc1ccn([C@@H]2O[C@H](CO)[C@@H](O)[C@@H]2O)c(=O)n1 [CYTARABINE HYDROCHLORIDE]
- EC50 [13]: < 0.1 µM (active)
- EC50 [14]: < 0.1 µM (active)

SMILES: Cc1ccc(-c2c3c(nc4sc(C(N)=O)c(N)c24)CCC3)cc1
- EC50 [1]: > 112 µM (not active)
- EC50 [2]: > 112 µM (not active)
- AC50 [15]: 22.4 µM (inconclusive)

SMILES: NC(=O)CSc1cn(Cc2cccc(F)c2)c2ccccc12
- EC50 [1]: > 112 µM (not active)
- EC50 [2]: > 112 µM (not active)
